Measurements reported in patent publication US20260199323A1, “LIGAND COMPOUNDS FOR E3 UBIQUITIN LIGASE, PROTEIN DEGRADERS DEVELOPED ON BASIS OF LIGAND COMPOUNDS, AND USES THEREOF” (GLUETACS THERAPEUTICS (SHANGHAI) CO., LTD., priority 2021, published 2026).
pIC50: −log10 of the molar value. Where two headings read alike, the source gives them in different places. Values belong to the compound of their own block, whether it stands above or below them.

How the values were obtained:
Hep3B2.7-1 = test: CCK-8 tumor cell proliferation, Hep3B2.7-1; assay type: cell-based, Human; conditions: Homo sapiens
Method: (§1) The tumor cells used herein were cultured in a cell culture medium listed in table 4 at 37° C. in an incubator with 5% CO2. Prior to experimentation, all cells used were correctly identified by STR profiling, and tested negative for mycoplasma through routine screenings.
(§2) IC50 values of the compounds of the present disclosure (including the compounds in Tables 1 and 3, and compounds of examples) were measured using the Meilun Cell Counting Kit-8 kit from Dalian Meilun Biotech Co., Ltd. Assay details are as follows: tumor cells were seeded in a 96-well plate at a density listed in Table 5. After 24 h, 100 μL of the inoculated cells were treated with 0.5 μL of the compounds of the present disclosure (including the compounds in Tables 1 and 3, and compounds of examples) at 10 different successively decreasing concentrations (starting at the highest concentration of 10 μM; 5-fold serial dilutions). After the cells were treated with the compounds of the present disclosure for a period of time, the cell viability detection reagent was added to the culture medium for cell viability assessment according to the instructions provided with the CCK-8 kit. […] The growth inhibition of the compounds of the present disclosure on cells was plotted by Prism Graphpad software, and the IC50 values of the compounds of the present disclosure were calculated therefrom.

Kasumi-1 = test: CCK-8 tumor cell proliferation, Kasumi-1; assay type: cell-based, Human; conditions: Homo sapiens; Table 19, IRAK4 inhibitor based; Kasumi-1; read-out: IC50 inhibiting proliferation of tumor cells, Kasumi-1
Method: as §1, §2

Jurkat = test: CCK-8 tumor cell proliferation, Jurkat; assay type: cell-based, Human; conditions: Homo sapiens, Table 19, IRAK4 inhibitor based, read-out: IC50 inhibiting proliferation of tumor cells, Jurkat
In short: (§3)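 Using the CCK-8 kit, viability of plated cells is assessed after exposure to compound across ten concentrations (5-fold serial dilution, top 10 μM) added at 24 h. IC50 is obtained by curve fitting of growth inhibition.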

CAL-62 = test: CCK-8 tumor cell proliferation, CAL-62; assay type: cell-based, Human; design: IC50 for inhibiting the proliferation of tumor cells, CAL-62: scale not given here; conditions: for pIC50: Homo sapiens, CAL-62, read-out: IC50 inhibiting proliferation of tumor cells, CAL-62
In short: as §3

MM.1S = test: CCK-8 tumor cell proliferation, MM.1S; assay type: cell-based; conditions: Homo sapiens, MM1.S; Table 18, FAK inhibitor based; MM.1S; read-out: IC50 inhibiting proliferation of tumor cells, MM.1S
In short: as §3

CCRF-CEM = test: CCK-8 tumor cell proliferation, CCRF-CEM; assay type: cell-based, Human; design: IC50 for inhibiting the proliferation of tumor cells, CCRF-CEM: scale not given here; conditions: for pIC50: Homo sapiens, CCRF-CEM, read-out: IC50 inhibiting proliferation of tumor cells, CCRF-CEM
In short: as §3

SW620 = test: CCK-8 tumor cell proliferation, SW620; assay type: cell-based, Human; conditions: Homo sapiens, SW-620, SW620, read-out: IC50 inhibiting proliferation of tumor cells, SW620
In short: as §3

LNcap = test: CCK-8 tumor cell proliferation, LNcap; assay type: cell-based, Human; conditions: Homo sapiens; Table 19, IRAK4 inhibitor based; Lncap; read-out: IC50 inhibiting proliferation of tumor cells, Lncap
Method: as §1, §2

Vcap = test: CCK-8 tumor cell proliferation, Vcap; assay type: cell-based, Human; conditions: Table 7, designed based on BTK inhibitors; 96 h
Method: as §1, §2

NCI-H1975 = test: CCK-8 tumor cell proliferation, NCI-H1975; assay type: cell-based, Human; conditions: for pIC50: Homo sapiens, Table 15, ALK inhibitor based, NCI-H1975, read-out: IC50 inhibiting proliferation of tumor cells, NCI-H1975
Method: as §1, §2

SR = test: CCK-8 tumor cell proliferation, SR; assay type: cell-based, Human; conditions: Homo sapiens; Table 15, ALK inhibitor based; SR; read-out: IC50 inhibiting proliferation of tumor cells, SR
In short: as §3

MDA-MB-231 = test: CCK-8 tumor cell proliferation, MDA-MB-231; assay type: cell-based, Human; conditions: Homo sapiens; Table 15, ALK inhibitor based; MDA-MB-231; read-out: IC50 inhibiting proliferation of tumor cells, MDA-MB-231
In short: as §3

PC-9 = test: CCK-8 tumor cell proliferation, PC-9; assay type: cell-based, Human; conditions: Homo sapiens; Table 15, ALK inhibitor based; PC-9; read-out: IC50 inhibiting proliferation of tumor cells, PC-9
[1] = Table 19, IRAK4 inhibitor based, Hep3B2.7-1, read-out: IC50 inhibiting proliferation of tumor cells, Hep3B2.7-1
[2] = Table 19, IRAK4 inhibitor based
[3] = Table 7, designed based on BTK inhibitors, 96 h

Structure (SMILES): CNC(=O)c1ccccc1Nc1cc(Nc2cc(C)c(C3CCN(Cc4ccc5c(c4)CN(C4CCC(=O)NC4=O)C5=O)CC3)cc2OC(C)C)ncc1C(F)(F)F (stereo not drawn) [GT-04078, 2-((2-((4-(1-((2-(2,6-dioxopiperidin-3-yl)-1-oxoisoindolin-5-yl)methyl)piperidin-4-yl)-2-isopropoxy-5-methylphenyl)amino)-5-(trifluoromethyl)pyridin-4-yl)amino)-N-methylbenzamide]
pIC50 (Hep3B2.7-1; Table 18, FAK inhibitor based, HEP3B2.7-1, read-out: IC50 inhibiting proliferation of tumor cells, HEP3B2.7-1): > 7.30
pIC50 (CAL-62; Table 18, FAK inhibitor based): > 7.30
pIC50 (MM.1S): > 7.30
pIC50 (CCRF-CEM; Table 18, FAK inhibitor based): > 7.30
pIC50 (SW620; Table 18, FAK inhibitor based): 6.30 to 7.00

Structure (SMILES): O=C1CCC(N2C(=O)c3ccc(CN4CCC(n5cc(NC(=O)c6coc(-c7ccnc(NCC(F)(F)F)c7)n6)c(C(F)F)n5)CC4)cc3C2=O)C(=O)N1 (stereo not drawn) [GT-04088, N-(3-(difluoromethyl)-1-(1-((2-(2,6-dioxopiperidin-3-yl)-1,3-dioxoisoindolin-5-yl)methyl)piperidin-4-yl)-1H-pyrazol-4-yl)-2-(2-((2,2,2-trifluoroethyl)amino)pyridin-4-yl)oxazole-4-carboxamide]
pIC50 (CAL-62; [2]): > 7.30
pIC50 (CCRF-CEM; [2]): > 7.30
pIC50 (SW620; [2]): 6.30 to 7.00
pIC50 (LNcap): 6.30 to 7.00
pIC50 (Jurkat): > 7.30

Structure (SMILES): Nc1ncnc2c1c(-c1ccc(Oc3ccccc3)cc1)nn2C1CCN(Cc2cc(F)c3c(c2)CN(C2CCC(=O)NC2=O)C3=O)CC1 (stereo not drawn) [GT-03473, 3-(5-((4-(4-amino-3-(4-phenoxyphenyl)-1H-pyrazolo[3,4-d]pyrimidin-1-yl)piperidin-1-yl)methyl)-7-fluoro-1-oxoisoindolin-2-yl)piperidine-2,6-dione]
IC50 for inhibiting the proliferation of tumor cells, Vcap (Vcap): A+
IC50 for inhibiting the proliferation of tumor cells, NCI-H1975 (NCI-H1975; [3]): A+
IC50 for inhibiting the proliferation of tumor cells, CCRF-CEM (CCRF-CEM; [3]): A+

Structure (SMILES): COc1cc(N2CCC(N(C)Cc3cc(F)c4c(c3)CN(C3CCC(=O)NC3=O)C4=O)CC2)c(C)cc1Nc1ncc(Br)c(Nc2ccc3nccnc3c2P(C)(C)=O)n1 (stereo not drawn) [GT-03927, 3-(5-(((1-(4-((5-bromo-4-((5-(dimethylphosphoryl)quinoxalin-6-yl)amino)pyrimidin-2-yl)amino)-5-methoxy-2-methylphenyl)piperidin-4-yl)(methyl)amino)methyl)-7-fluoro-1-oxoisoindolin-2-yl)piperidine-2,6-dione]
IC50 for inhibiting the proliferation of tumor cells, CAL-62 (CAL-62; Table 11, designed based on EGFR inhibitors, 72 h): A+
IC50 for inhibiting the proliferation of tumor cells, H1975 (NCI-H1975; Table 11, designed based on EGFR inhibitors, 96 h): A+

Structure (SMILES): O=C1CCC(N2Cc3c(CN4CCC(n5cc(NC(=O)c6coc(-c7ccnc(NCC8CC8)c7)n6)c(C(F)F)n5)CC4)cccc3C2=O)C(=O)N1 (stereo not drawn) [GT-04173, 2-(2-((cyclopropylmethyl)amino)pyridin-4-yl)-N-(3-(difluoromethyl)-1-(1-((2-(2,6-dioxopiperidin-3-yl)-1-oxoisoindolin-4-yl)methyl)piperidin-4-yl)-1H-pyrazol-4-yl)oxazole-4-carboxamide]
pIC50 (CAL-62; [2]): 5.30 to 6.00
pIC50 (CCRF-CEM; [2]): 5.30 to 6.00
pIC50 (SW620; [2]): 5.30 to 6.00
pIC50 (LNcap): 6.30 to 7.00
pIC50 (Jurkat): 6.00 to 6.30

Structure (SMILES): O=C1CCC(N2C(=O)c3ccc(CN4CCC(n5cc(NC(=O)c6coc(-c7ccnc(NCC8CC8)c7)n6)c(C(F)F)n5)CC4)cc3C2=O)C(=O)N1 (stereo not drawn) [GT-04174, 2-(2-((cyclopropylmethyl)amino)pyridin-4-yl)-N-(3-(difluoromethyl)-1-(1-((2-(2,6-dioxopiperidin-3-yl)-1,3-dioxoisoindolin-5-yl)methyl)piperidin-4-yl)-1H-pyrazol-4-yl)oxazole-4-carboxamide]
pIC50 (CAL-62; [2]): > 7.30
pIC50 (CCRF-CEM; [2]): > 7.30
pIC50 (SW620; [2]): 6.30 to 7.00
pIC50 (LNcap): 6.00 to 6.30
pIC50 (Jurkat): 7.00 to 7.30

The next lines start with the values.

pIC50 (Hep3B2.7-1; [1]): 6.00 to 6.30
pIC50 (Kasumi-1): 6.30 to 7.00
pIC50 (Jurkat): 6.30 to 7.00
Structure (SMILES): O=C1CCC(N2Cc3cc(CN4CCN(c5ccc(-n6cc(NC(=O)c7coc(-c8ccnc(NCC(F)(F)F)c8)n7)c(C(F)F)n6)cc5)CC4)cc(F)c3C2=O)C(=O)N1 (stereo not drawn) [GT-04270, N-(3-(difluoromethyl)-1-(4-(4-((2-(2,6-dioxopiperidin-3-yl)-7-fluoro-1-oxoisoindolin-5-yl)methyl)piperazin-1-yl)phenyl)-1H-pyrazol-4-yl)-2-(2-((2,2,2-trifluoroethyl)amino)pyridin-4-yl)oxazole-4-carboxamide]

pIC50 (Hep3B2.7-1; [1]): 6.00 to 6.30
pIC50 (Kasumi-1): 6.30 to 7.00
pIC50 (Jurkat): 6.00 to 6.30
Structure (SMILES): O=C1CCC(N2Cc3c(ccc(CN4CCN(c5ccc(-n6cc(NC(=O)c7coc(-c8ccnc(NCC(F)(F)F)c8)n7)c(C(F)F)n6)cc5)CC4)c3F)C2=O)C(=O)N1 (stereo not drawn) [GT-04268, N-(3-(difluoromethyl)-1-(4-(4-((2-(2,6-dioxopiperidin-3-yl)-4-fluoro-1-oxoisoindolin-5-yl)methyl)piperazin-1-yl)phenyl)-1H-pyrazol-4-yl)-2-(2-((2,2,2-trifluoroethyl)amino)pyridin-4-yl)oxazole-4-carboxamide]

pIC50 (Hep3B2.7-1; [1]): 6.30 to 7.00
pIC50 (Kasumi-1): 6.30 to 7.00
pIC50 (Jurkat): 6.00 to 6.30
Structure (SMILES): O=C1CCC(N2Cc3cc(CN4CCN(c5ccc(-n6cc(NC(=O)c7coc(-c8ccnc(NCC(F)(F)F)c8)n7)c(C(F)F)n6)cc5)CC4)ccc3C2=O)C(=O)N1 (stereo not drawn) [GT-04267, N-(3-(difluoromethyl)-1-(4-(4-((2-(2,6-dioxopiperidin-3-yl)-1-oxoisoindolin-5-yl)methyl)piperazin-1-yl)phenyl)-1H-pyrazol-4-yl)-2-(2-((2,2,2-trifluoroethyl)amino)pyridin-4-yl)oxazole-4-carboxamide]

pIC50 (SR): > 7.30
pIC50 (MDA-MB-231): 6.00 to 6.30
pIC50 (NCI-H1975): 5.30 to 6.00
pIC50 (PC-9): 6.00 to 6.30
Structure (SMILES): Cc1cc(Nc2ncc(Cl)c(Nc3ccccc3S(=O)(=O)C(C)C)n2)c(OC(C)C)cc1N1CCC(N(C)Cc2ccc3c(c2)CN(C2CCC(=O)NC2=O)C3=O)CC1 (stereo not drawn) [GT-03530, 3-(5-(((1-(4-((5-chloro-4-((2-(isopropylsulfonyl)phenyl)amino)pyrimidin-2-yl)amino)-5-isopropoxy-2-methylphenyl)piperidin-4-yl)(methyl)amino)methyl)-1-oxoisoindolin-2-yl)piperidine-2,6-dione]

pIC50 (CCRF-CEM; [2]): 6.30 to 7.00
pIC50 (LNcap): 6.30 to 7.00
pIC50 (Jurkat): 7.00 to 7.30
Structure (SMILES): CC(C)(O)c1cc2nc(C3CCN(Cc4cc5c(cc4F)C(=O)N(C4CCC(=O)NC4=O)C5)CC3)sc2cc1NC(=O)c1cccc(C(F)(F)F)n1 (stereo not drawn) [GT-04506, N-(2-(1-((2-(2,6-dioxopiperidin-3-yl)-6-fluoro-1-oxoisoindolin-5-yl)methyl)piperidin-4-yl)-5-(2-hydroxypropan-2-yl)benzo[d]thiazol-6-yl)-6-(trifluoromethyl)picolinamide]

pIC50 (SR): 7.00 to 7.30
pIC50 (MDA-MB-231): 5.30 to 6.00
pIC50 (NCI-H1975): 5.30 to 6.00
pIC50 (PC-9): 5.30 to 6.00
Structure (SMILES): C[C@@H](Oc1cc(-c2cnn(C3CCN(Cc4ccc5c(c4)CN(C4CCC(=O)NC4=O)C5=O)CC3)c2)cnc1N)c1c(Cl)ccc(F)c1Cl (stereo partly drawn) [GT-02974, 3-(5-((4-(4-(6-amino-5-((R)-1-(2,6-dichloro-3-fluorophenyl)ethoxy)pyridin-3-yl)-1H-pyrazol-1-yl)piperidin-1-yl)methyl)-1-oxoisoindolin-2-yl)piperidine-2,6-dione]
